Here are results for four compounds from patent US10071989B2, “Substituted cinnamamide derivative, preparation method and use thereof” (TASLY PHARMACEUTICAL GROUP CO., LTD., priority 2011, dated 2018).

Type in all cases: in vivo
The test system of assay [1] is mice. Description: Anti-depression effect in the tested models (overall conclusion). Particulars: in the tested model at the tested dose. From the text: Based on the aforesaid experiments, the following conclusion can be drawn: • 1.
Assay [2] concerns C57BL/6 mice. Description: Depression model test of anti-blepharoptosis caused by reserpine (akinesia, blepharoptosis, shell temperature). Particulars: for Degree of eye-closure: score 0-4 one hour after reserpine; for responders at 10 mg/kg: Mus musculus, po, 1 h, one hour after reserpine, 7.5 cm circle, 15-second observation, read-out: “out-of-circle” ratio; for Improving akinesia, blepharoptosis and shell temperature: ranking among the tested compounds (in words): within the experiment. How it is done: 120 male C57BL/6 mice were randomly selected to observe the number of their autonomic activity. The mice was placed into the YLS-1A multi-functional mice autonomic activity recorder, and after 1 min of adaption, the activity of the mice was counted within a time period from the end of 1st min to 4th min. 96 mice with the number of autonomic activity between 70˜140 were screened out, divided randomly into 8 groups, and intragastrically administrated with the drug compounds at a dose listed in Table 3, one time daily for 7 days consecutively. The solvent control group was administrated with 2% Tween-80 aqueous solution in the same volume. Except the normal control group, 30 min after the last administration, each group was injected intraperitoneally with reserpine at a dose of 4 mg/kg. Next, akinesia, blepharoptosis and shell temperature were observed.
I Akinesia: one hour after intraperitoneal injection of reserpine, the mice were placed at the center of a circle with a diameter of 7.5 cm for a 15-second observation to calculate the “out-of-circle” ratio.
II Blepharoptosis: one hour after intraperitoneal injection of reserpine, the eye closure of mice was observed and scored by the following standard: eyelids open, 0; eyelids ¼ closed, 1; eyelids 2/4 closed, 2; eyelids ¾ closed, 3; eyelids closed completely, 4.
III Shell temperature: two hours after intraperitoneal injection of reserpine, the shell temperature of the abdomen of the mice was measured.
120 C57BL/6 mice were randomly selected to observe the number of their autonomic activity. The method was the same with that of Experiment 1. 100 mice with the number of autonomic activity between 70˜140 were screened out, divided randomly into 10 groups, and intragastrically administrated with the drug compounds at a dose listed in Table 4, one time daily for 7 days consecutively. The mice in the normal group and the solvent control group were administrated with 2% Tween-80 aqueous solution in the same volume. Except the normal control group, 30 min after the last administration, each group was injected intraperitoneally with reserpine at a dose of 4 mg/kg. Next, akinesia, blepharoptosis and shell temperature were observed. Observation method was the same with that of Experiment 1.

Assay [3] concerns C57BL/6 mice. Description: "Acquired despair" depression model of tail suspension test in mice. Particulars: for Effect on immobility time in tail suspension test (in words): 10 mg/kg intragastric for 7 days, compared with the solvent control group. How it is done:
30 min after administration at 7th day, the mice was fixed on a sustainer with a rubberized cloth at 1 cm close to the end of the tail of mice, making the mice hanged upside down. The head of the mice was about 30 cm above the table and its sight was separated from the neighboring mouse with a plate. Usually, the mice might manage to struggle in hopes of overcoming the abnormal body position. […] The accumulated immobility time within 6 min of each mouse was observed, which was regarded as “despair time”.
(§1) 130 mice were randomly selected to observe the number of their autonomic activity. The method was the same with that of Experiment 1. 108 mice with the number of autonomic activity between 70˜140 were screened out, divided randomly into 9 groups, and intragastrically administrated with the drug compounds at a dose listed in Table 2, one time daily for 7 days consecutively. The solvent control group was administrated with 2% Tween-80 aqueous solution in the same volume. 30 min after administration at 6th day, the number of the autonomic activity of each mouse was observed. 30 min after administration at 7th day, the immobility time in tail suspension test was observed. The method was the same with that in Experiment 1.

For assay [4], the system named is C57BL/6 mice. The experiment in a line: Forced swimming experiment in mice. How it is done: After 1˜2 days of adaptive feed, 80 male C57BL/6 mice, aged 6˜8 weeks and weighing 18˜22 g, were placed into the YLS-1A multi-functional mice autonomic activity recorder. After 1 min of adaption, the activity of the mice was counted within a time period from the end of 1st min to 4th min. 60 mice with the number of autonomic activity between 70˜140 were screened out, divided randomly into 6 groups, and intragastrically administrated with the drug compounds at a dose listed in Table 5, one time daily for 7 days consecutively. The solvent control group was administrated with 2% Tween-80 aqueous solution in the same volume. After the administration at 6th day, the mice were placed into a cylindrical aquarium with a water depth of 10 cm and 25° C. to force the mice to swim. After 15 min, the mice were taken out, dried and returned to the cage. 24 hours later, 30 min after the last intragastrical administration, the mice were placed into a glass bottle with a diameter of 10 cm, a height of 30 cm and a water depth of 10 cm, and the temperature of the water in the bottle was at 25° C. The mice were separated with an opaque partition, so as not to influence each other. After 2 min of adaption, an accumulated immobility time from the end of 2nd min to 6th min was recorded.

Assay [5] relates to C57BL/6 mice. The experiment in a line: Number of autonomic activity of mice (YLS-1A autonomic activity recorder). Particulars: for Effect on autonomic activity of mice (in words): 10 mg/kg intragastric, one week, compared with the solvent control group; for Number of Autonomic activity (time): 10 mg/kg intragastric once daily, counted 30 min after administration at 6th day. How it is done:
110 mice were randomly selected to observe the number of their autonomic activity. The mice was placed into the YLS-1A multi-functional mice autonomic activity recorder, and after 1 min of adaption, the mice's activity was counted within a time period from the end of 1st min to 4th min. 96 mice with the number of autonomic activity between 70˜140 were screened out, divided randomly into 8 groups, and intragastrically administrated with the drug compounds at a dose listed in Table 1, one time daily for 7 days consecutively. The solvent control group was administrated with 2% Tween-80 aqueous solution in the same volume. All mice were placed into the autonomic activity recorder 30 min after administration at 6th day. After 1 min of adaption, the mice's activity was counted within a time period from the end of 1st min to 4th min.
as §1

[6] abbreviates: 10 mg/kg intragastric 7 days, compared with the solvent control group.
The mark [7] stands for this setting: 10 mg/kg, compared with the solvent control group.
[8] abbreviates: Experiment 2, 10 mg/kg intragastric 7 days, reserpine 4 mg/kg i.p., abdomen, two hours after reserpine, ±SD.
The mark [9] stands for this setting: Experiment 2, 10 mg/kg intragastric 7 days, reserpine 4 mg/kg i.p., ±SD.
Where [10] appears, read: Experiment 2, 10 mg/kg intragastric 7 days, reserpine 4 mg/kg i.p.
Where [11] appears, read: 10 mg/kg, compared with I-1, p<0.05.

Entries after “also recorded” stand apart in the source; their conditions may differ. Read-outs that look alike come from different tables or passages of the source. Marks after values point to notes of the source that are not given here.

With `O=C(/C=C/c1cc2c(c(C(F)(F)F)c1)OCO2)N1CCCCC1` [Compound I-10], in assay [1], the “Anti-depression effect compared with the pharmacologic effect of I-1 (in words)” value is on record as “increased to some degree”. Moreover, the “Blepharoptosis, “out-of-circle” ratio and shell temperature after reserpine (effect in words)” value in assay [2] (setting [6]) is “antagonizing the decrease of shell temperature, akinesia and improving the degree of eye closure”. Moreover, the “Degree of eye closure / blepharoptosis after reserpine compared with I-1 (in words)” value in assay [2] (10 mg/kg) is reported as “increased improvement”. In addition, in assay [2] (setting [7]), the “Blepharoptosis after reserpine (effect in words)” value is listed as “improve blepharoptosis of the mice significantly”; the “Shell temperature and “out-of-circle” ratio after reserpine (effect in words)” value was “to a certain degree but without statistically significant difference”. Moreover, in assay [2] (setting [8]), the “Change in the shell temperature (T ° C.)” value was found to be 27.15 ± 1.20 °C. Moreover, the Degree of eye-closure in assay [2] (setting [9]) was 1.80 ± 1.32. In addition, the responders at 10 mg/kg in assay [2] (setting [10]) worked out at 30%. Also, the “Effect on immobility time in tail suspension test (in words)” value in assay [3] is recorded as “reduce the immobility time of the mice in tail suspension test significantly; also recorded: significantly shorten the immobility time”. The “Immobility time in the forced swimming test in mice(s)” value in assay [4] (10 mg/kg intragastric once daily for 7 days, 30 min after last administration, end of 2nd min to 6th min) stood at 83.07 ± 31.03 s. The “Effect on immobility time in the forced swimming test (in words)” value in assay [4] (within the dosage range (5-10 mg/kg), compared with the solvent control group) is on record as “shortening the immobility time; also recorded: shorten the immobility time”. Besides, in assay [5], the “Effect on autonomic activity of mice (in words)” value (from here on “Effect on autonomic activity”) was “had no effect”. For the same compound, the “Number of Autonomic activity (time)” value in assay [5] (Experiment 2) was 95.30 ± 15.06 time.

In the case of `CC(C)CNC(=O)c1cc2c(c(C(F)(F)F)c1)OCO2` [Compound I-12, N-isobutyl-5-trifluoromethyl-3,4-methylenedioxy benzamide], in assay [1], the “Anti-depression effect compared with the pharmacologic effect of I-1 (in words)” value is on record as “increased to some degree”. Moreover, the “Blepharoptosis, “out-of-circle” ratio and shell temperature after reserpine (effect in words)” value in assay [2] (setting [6]) was “remarkably improve; also recorded: antagonizing the decrease of shell temperature, akinesia and improving the degree of eye closure”. The “Blepharoptosis, shell temperature and “out-of-circle” ratio compared with Compound I-1 (in words)” value in assay [2] (10 mg/kg, compared with I-1, p<0.05, p<0.01) is reported as “significantly improved effect”. Also, the “Improving akinesia, blepharoptosis and shell temperature: ranking among the tested compounds (in words)” value in assay [2] (10 mg/kg) was “better effects”. In addition, in assay [2] (setting [8]), the “Change in the shell temperature (T ° C.)” value came to 30.65 ± 1.16 °C. Also, the Degree of eye-closure in assay [2] (setting [9]) is on record as 1.50 ± 1.18. In assay [2] (setting [10]), the responders at 10 mg/kg was 70%. Further, the “Effect on immobility time in tail suspension test (in words)” value in assay [3] was “reduce the immobility time of the mice in tail suspension test significantly; also recorded: significantly shorten the immobility time”. Besides, the “Effect on autonomic activity” value in assay [5] is on record as “had no effect”. In assay [5] (Experiment 2), the “Number of Autonomic activity (time)” value stood at 93.20 ± 19.54 time.

In the case of `CC(C)CNC(=O)/C=C/c1cc(Cl)c2c(c1)OCO2` [Compound I-4, N-isobutyl-5′-chloro-3′,4′-methylenedioxy cinnamamide], the “Anti-depression effect compared with the pharmacologic effect of I-1 (in words)” value in assay [1] is given as “increased to some degree”. Further, in assay [2] (setting [6]), the “Blepharoptosis, “out-of-circle” ratio and shell temperature after reserpine (effect in words)” value is “improved significantly; also recorded: antagonizing the decrease of shell temperature, akinesia and improving the degree of eye closure”. Moreover, in assay [2] (10 mg/kg), the “Degree of eye closure / blepharoptosis after reserpine compared with I-1 (in words)” value is recorded as “reduced”; the “Improving akinesia, blepharoptosis and shell temperature: ranking among the tested compounds (in words)” value was “best effect”. Besides, the ““out-of-circle” ratio after reserpine compared with I-1 (in words)” value in assay [2] (setting [11]) is on record as “increased markedly”. Besides, the “Change in the shell temperature (ΔT ° C.)” value in assay [2] (Experiment 1, 10 mg/kg intragastric 7 days, reserpine 4 mg/kg i.p., abdomen, two hours after reserpine, ±SD) was determined as 1.51 ± 0.31 °C. In addition, in assay [2] (Experiment 1, 10 mg/kg intragastric 7 days, reserpine 4 mg/kg i.p., ±SD), the Degree of eye-closure is reported as 0.17 ± 0.39**^ΔΔ. Moreover, the responders at 10 mg/kg in assay [2] (Experiment 1, 10 mg/kg intragastric 7 days, reserpine 4 mg/kg i.p.) stood at 100%. In assay [3], the “Effect on immobility time in tail suspension test (in words)” value is “remarkably reduce the immobility time; also recorded: significantly shorten the immobility time”. For the same compound, the “Effect on antagonizing immobility in tail suspension test compared with I-1 (in words)” value in assay [3] (setting [11]) is “better effect”. For the same compound, in assay [5], the “Effect on autonomic activity” value was “had no affect”. Also, the “Number of Autonomic activity (time)” value in assay [5] (Experiment 1, end of 1st min to 4th min) was 94.75 ± 28.53 time.

For `CCN(CC)C(=O)/C=C/c1cc2c(c(C(F)(F)F)c1)OCO2` [Compound I-9, N,N-diethyl-5′-trifluoromethyl-3′,4′-methylenedioxy cinnamamide], the “Anti-depression effect compared with the pharmacologic effect of I-1 (in words)” value in assay [1] is on record as “increased to some degree”. In assay [2] (setting [6]), the “Blepharoptosis, “out-of-circle” ratio and shell temperature after reserpine (effect in words)” value was “remarkably improve; also recorded: antagonizing the decrease of shell temperature, akinesia and improving the degree of eye closure”. Also, the “Degree of eye closure / blepharoptosis after reserpine compared with I-1 (in words)” value in assay [2] (10 mg/kg) is reported as “increased improvement”. Further, the “Change in the shell temperature (T ° C.)” value in assay [2] (setting [8]) amounted to 28.70 ± 1.78 °C. In assay [2] (setting [9]), this compound registered a Degree of eye-closure of 1.80 ± 1.23. For the same compound, the responders at 10 mg/kg in assay [2] (setting [10]) came out at 30%. Also, the “Effect on immobility time in tail suspension test (in words)” value in assay [3] was “reduce the immobility time of the mice in tail suspension test significantly; also recorded: significantly shorten the immobility time”. Further, in assay [5], the “Effect on autonomic activity” value is on record as “had no effect”. The “Number of Autonomic activity (time)” value in assay [5] (Experiment 2) is 83.60 ± 22.68 time.
